{"source": "patent US7232805B2", "about": "“Cobalamin conjugates for anti-tumor therapy” (Inflabloc Pharmaceuticals, Inc., priority 2003, dated 2007)", "key": {"[1]": {"tested_on": "MX-1 human breast carcinoma xenograft", "assay": "tumor growth delay, MX-1 xenograft, single-cycle dosing (Example 3)", "procedure": "Test articles were administered on the day of pair matching, Day 1.\nThe upper limit of acceptability is 20% weight loss."}, "[2]": {"tested_on": "MX-1 human breast carcinoma xenograft", "assay": "tumor growth delay, MX-1 xenograft, two-cycle dosing (Example 11)", "experimental": "The following procedure was used to investigate the tumor growth delay effects of the conjugate, particularly for the treatment of MX-1 human breast carcinoma xenograft in athymic mice using a two-cycle dosing regimen. Female nude Harlan mice are implanted subcutaneously with 1 mm^3 MX 1 solid tumor fragments in the flank. During the pre-dose phase of implantation and growth, tumors are initially monitored twice weekly, and then daily as the neoplasms approach the desired size of 80-120 mg. When the majority of tumors reached the targeted weight range (80-120 mg), mice are pair-matched into 5 treatment groups of 10 mice each. For purposes of this illustrationon the effect of 2-cycles of treatment, data from 3 groups are shown: no treatment, 3 mg/kg/day (days 1-5, 21-25) intravenous Doxorubicin and 24 mg/kg/day (days 1-5, 21-25) intravenous bioconjugate. Test article administration began on this day, referred to as Day 1. The tumor growth delay endpoint is reached when the tumor on the mouse reaches 1.5 gm weight estimated by the formula: Tumor weight (mg)=w^2×l/2×1 mg/mm^3, where w=width (mm) and l=length (mm) of the tumor. The median time to endpoint is calculated for each treatment group."}, "[3]": {"tested_on": "SK-N-MC cells", "assay": "CellTiter-Glo Luminescent Cell Viability Assay, SK-N-MC cells", "assay_type": "cell-based, human", "conditions": "96 hours, 100 μM down to 10 nM", "excerpt": "FIG. 8 is a chart depicting the results of an in vitro assay of the stable conjugate against SK-N-MC cells, cells derived from a human brain neuroblastoma (neuroepithelioma) cell line. The assay employed is the CellTiter-Glo™ Luminescent Cell Viability Assay from Promega Corporation, which is recognized in the art as being predictive of the effect of a compound on cell viability. FIG. 8 depicts the results of the assay conducted according to Example 9. The method described by Promega Corporation (Technical Bulletin No. 288) was followed with no exceptions.\nDoxorubicin and CobalaRubicin-200 stocks and stock solutions, prepared in 5% DMSO in water, were stored at −20° C. and protected from light. […]\n(§1) After 96 hours, the effects of doxorubicin and B12-S-doxorubicin on cell viability were determined using an assay from Promega. The CellTiter-Glo™ Luminescent Cell Viability Assay quantitates the ATP present in a culture, which correlates with metabolically active cells. Luminescence, which is dependent on ATP concentration, was measured for each individual well on a Wallac MicroBeta® JET Liquid Scintillation and Luminescence Counter. The average luminescence value of the three wells containing medium alone was subtracted from the raw data values to give corrected values. […] Percent cell viability was calculated by considering the untreated cells as 100% viable. […]"}, "[4]": {"tested_on": "HL-60 cells", "assay": "CellTiter-Glo Luminescent Cell Viability Assay, HL-60 cells", "assay_type": "cell-based, human", "conditions": "HL-60, 96 hours, 100 μM down to 10 nM, FIG. 6c", "excerpt": "FIGS. 6a-6d depict the results of in vitro assays of the conjugate against four cell lines. FIG. 6A is a chart depicting the results of the conjugate against MCF-7 cells, cells derived from a human breast cancer cell line. FIG. 6B is a chart depicting the results of the conjugate against SK-BR-3 cells, cells derived from a human breast adenocarcinoma cell line. FIG. 6C is a chart depicting the results of the conjugate against HL-60 cells, cells derived from a human promyelocytic leukemia cell line. FIG. 6D is a chart depicting the results of the conjugate against SK-N-MC cells, cells derived from a human brain neuroblastoma (neuroepithelioma) cell line. […]\nas §1, with “The three corrected values for wells dosed with” for “Percent cell viability was calculated by considering”, “same concentration of compound were averaged and the standard deviation calculated.” for “untreated cells as 100% viable.”"}, "[5]": {"conditions": "32 mg/kg/day x 5 days intravenous"}, "[6]": {"conditions": "32 mg/kg/day x 5 days intravenous, group of 10 mice"}, "[7]": {"conditions": "lower dose than 24 mg/kg/day, data not shown"}, "[8]": {"conditions": "two cycles of 24 mg/kg/day intravenous"}, "[9]": {"conditions": "two cycles of 24 mg/kg/day intravenous, at 71 days"}}, "data": [{"smiles": "COc1cccc2c1C(=O)c1c(O)c3c(c(O)c1C2=O)C[C@@](O)(C(=O)CO)C[C@@H]3O[C@H]1C[C@H](NC(=O)OCc2ccc(NC(=O)[C@H](CCCCN)NC(=O)[C@H](Cc3ccccc3)NC(=O)CCCCCNC(=O)OC[C@H]3O[C@H](n4cnc5cc(C)c(C)cc54)[C@H](O)[C@@H]3OP(=O)(O)O[C@H](C)CNC(=O)CC[C@@]3(C)C4=C(C)C5=NC(=CC6=NC(=C(C)C7=N[C@@](C)([C@H](N4)[C@@H]3CC(N)=O)[C@@](C)(CC(N)=O)[C@@H]7CCC(N)=O)[C@@](C)(CC(N)=O)[C@@H]6CCC(N)=O)C(C)(C)[C@@H]5CCC(N)=O)cc2)[C@H](O)[C@H](C)O1", "note": "[conjugate 13, B12-5′-OCONH(CH2)5CO-Phe-Lys-PABC-Dox]", "values": [{"measurement": "median time to endpoint (tumor 1.5 gm)", "setting": "[1]; [5]", "value": 62.1, "unit": "days"}, {"measurement": "time to endpoint longer than control", "setting": "[1]; [5]", "value": 44.3, "unit": "days"}, {"measurement": "treatment or nontreatment related deaths", "setting": "[1]; [5]", "value": "no treatment or nontreatment related deaths"}, {"measurement": "maximum body weight loss", "setting": "[1]; 32 mg/kg/day x 5 days intravenous, day 9", "value": "−8.4", "unit": "%"}, {"measurement": "long-term, tumor-free survivors", "setting": "[1]; [6]", "value": 4, "unit": "mice"}, {"measurement": "mice that developed complete regression", "setting": "[1]; [6]", "value": 6, "unit": "mice"}, {"measurement": "time to endpoint longer than the Doxorubicin active control", "setting": "[1]; 32 mg/kg/day x 5 days intravenous, Doxorubicin 3 mg/kg/day", "value": 22.6, "unit": "days"}, {"measurement": "toxicity", "setting": "[1]; 64 mg/kg/day x 5 days intravenous, group terminated on Day 4", "value": "severe toxicity"}, {"measurement": "efficacy compared with the free drug (tumor size versus days)", "setting": "[1]; FIG. 9", "value": "much greater efficacy than the free drug"}, {"measurement": "change in tumor size", "setting": "[1]; at about 2-4 weeks after administration, FIG. 9", "value": "substantial decrease in tumor size"}, {"measurement": "additional toxicity (body weight) from increased amount of doxorubicin in the conjugate", "setting": "[1]; single-cycle study, FIG. 12a, 2.3-fold increase of doxorubicin", "value": "not associated with additional toxicity"}, {"measurement": "efficacy versus free doxorubicin on a molar equivalent basis", "setting": "[2]; [7]", "value": "less efficacious than free doxorubicin"}, {"measurement": "tumor growth versus non-treatment control", "setting": "[2]; [7]", "value": "delay in tumor growth was observed"}, {"measurement": "time to endpoint longer than control mice", "setting": "[2]; two cycles of 24 mg/kg/day (days 1-5, 21-25) intravenous", "value": 44, "unit": "days"}, {"measurement": "maximum body weight loss", "setting": "[2]; [8]", "value": 10, "unit": "%"}, {"measurement": "treatment or nontreatment related deaths", "setting": "[2]; [8]", "value": "no treatment or nontreatment related deaths"}, {"measurement": "long-term, tumor-free survivors", "setting": "[2]; [9]", "value": "7 of 10"}, {"measurement": "mice that developed complete regression", "setting": "[2]; [9]", "value": "9 of 10"}, {"measurement": "recovery from weight loss versus native doxorubicin", "setting": "[2]; two-cycle study, FIG. 12b, equivalent dose of doxorubicin in the conjugate 2-fold greater", "value": "tended recover from their weight loss sooner"}, {"measurement": "weight loss", "setting": "[2]; two-cycle study, doxorubicin 3 mg/kg/day, bioconjugate 24 mg/kg/day", "value": "significant weight loss"}, {"measurement": "reduction of tumor size and delay of tumor growth", "setting": "[2]; two-cycle treatment, study day 71, FIG. 11", "value": "extremely effective at reducing tumor size and delaying tumor growth"}, {"measurement": "cell viability / cytotoxicity", "setting": "[3]; FIG. 6d and FIG. 8", "value": "very efficacious"}, {"measurement": "cell viability / cytotoxicity", "setting": "[3]; FIG. 6d and FIG. 8, listed as CobalaRubicin 200", "value": "same effectiveness as doxorubicin and is slightly less potent than doxorubicin"}, {"measurement": "cell viability versus free doxorubicin", "setting": "[4]", "value": "same effectiveness as doxorubicin and is slightly less potent than doxorubicin"}]}]}
